Test results as given in patent US9371364B2, “Dual-targeted therapeutic peptide for nasopharyngeal carcinoma, nanoparticles carrying same and uses thereof” (HUAZHONG UNIVERSITY OF SCIENCE AND TECHNOLOGY, priority 2012, dated 2016).

Tested on: nasopharyngeal carcinoma cells (5-8 F, SUNE-1, HONE-1) versus other cancer cells
Test: Octa-FNP fluorescent nano-probe screening of tumor cells (laser confocal imaging, FACS)
Type: cell-based
Details: 3 h incubation, FIG. 1
Method: In this example, a peptide octavalent fluorescent nanoprobe based on tetramer far-red fluorescent protein was prepared by using a method for constructing a peptide fluorescent probe having a multivalent effect and a nanosized effect invented in the previous research. The probe was used to detect and screen different types of tumor cell lines, in order to screen and identify the tumor-targeting property of the peptide, […] (SEQ ID NO: 3).

For “LTVSPWYLTVSPWY (a targeted therapeutic peptide for nasopharyngeal carcinoma)”, the “induction of tumor cell death” value was “can effectively induce the death of tumor cells” and the “tumor-targeting property of the peptide” value was “excellent tumor-targeting property to nasopharyngeal carcinoma cells”.
